From patent publication US10752628B2, “Compounds and methods for treating synovial sarcomas” (THE BROAD INSTITUTE, INC., priority 2015, dated 2020)

Tests used:
Type in all cases: cell-based, human
[1] = test system: BAF47 within the BAF complex; test: anti-Brg immunoprecipitation of BAF complexes followed by anti-BAF47 western blot in Aska cells; conditions: 48 hours at 16 μM, relative to DMSO control
Method: Briefly, naïve, unmodified Aska SS cells were treated for 48 hours at 16 μM concentration of all 5 positive hit compounds (as well as negative compounds for controls). The western blot reflects IPs of BAF complexes highlighting increased incorporation/stability of BAF47 relative to DMSO control. The bar graph highlights levels of BAF47 (measured via western blot quantitative densitometry) over n=3 experiments for each compound, including testing against three other negative compounds.
(§1) All cell types were grown under standard conditions and lysed and homogenized in Buffer A (10 mM Hepes (pH 7.6), 25 mM KCl, 1 mM EDTA, 10% glycerol, 1 mM DTT, and protease inhibitors (complete mini tablets (Roche) supplemented with 1 mM PMSF) on ice. Nuclei were sedimented by centrifugation (1,000×g), resuspended in Buffer C (10 mM Hepes (pH 7.6), 3 mM MgCl2, 100 mM KCl, 0.1 mM EDTA, 10% glycerol, 1 mM DTT, and protease inhibitors), and lysed by the addition of ammonium sulfate to a final concentration of 0.3 M. Soluble nuclear proteins were separated by the insoluble chromatin fraction by ultracentrifugation (100,000×g) and precipitated with […] ammonium sulfate for 20 min on ice. Protein precipitate was isolated by ultracentrifugation (100,000×g), and resuspended in IP buffer (150 mM NaCl, 50 mM Tris-HCl (pH 8.0), 1% NonidetP-40, 0.5% deoxycholate, 1 mM DTT, 1 mM PMSF with protease inhibitors) for immunoprecipitation analyses or HEMG-0 buffer (25 mM HEPES pH 7.9, 0.1 mM EDTA, 12.5 mM MgCl2, 100 mM KCl, freshly supplemented with DTT and PMSF) for glycerol gradient analyses.
(§2) Nuclear extracts were resuspended in IP buffer and precleared for 30 minutes at 4 degrees C. using Protein G/A Sepharose beads (GE Healthcare). The protein concentration was determined using Bradford assay and adjusted to a final volume of 250 μL at a final concentration of 1.5 mg/mL with IP buffer. Each IP was incubated with 2.5 μg of antibody overnight at 4° C. and then for 2 h with 20 μL Protein A/G Sepharose beads. The beads were washed four times at room temperature with 1 mL IP buffer and resuspended in 20 μL 2× gel loading buffer (4×LDS Buffer; Invitrogen)+DTT.

[2] = test system: BAF47 within the BAF complex; test: BAF155 immunoprecipitation and western blot for BAF47 in Aska cells; conditions: for BAF47 stabilization within the BAF complex (BAF155 immunoprecipitation): Aska cells, twenty-four hours, single 30 micromolar dose
Method: These include resynthesized positive hits for Compounds 5-6.
FIG. 8 comprises a series of images and graph illustrating the activity of Compound 5 in Yamato cells. Briefly, Yamato cells were treated with 30 μM compound for 24 hours over n=5 replicates. The graph depicts levels of BAF47 in DMSO treated vs Compound 5-treated cells.
as §1, §2

[3] = test system: Aska synovial sarcoma cells; test: Synovial sarcoma cell viability by CellTiter Glo luminescence
Method: FIGS. 15A-15C comprise a set of graphs illustrating the finding that compounds of the invention reduce synovial sarcoma cell viability as measured by CellTiter Glog luminescence.
The effect of compounds of the invention on synovial sarcoma cell viability was assessed as measured by CellTiter Glo® luminescence (FIGS. 15A-15B). Briefly, cells were plated under standard conditions and allowed to grow to 75% confluence prior to treatment with compounds. CellTiterGlo reagent was used to measure cell viability.

[4] = test system: BAF47; test: Time and dose study of Compound 11 on BAF47 stability in Aska cells; conditions: 0-30 micromolar, 24, 48 and 72 hours
Method: FIG. 9 comprises a set of bar graphs illustrating the effects of Compound 11 (illustrated), the lead compound lacking the hydroxyl group, as a function of time and dose in Aska cells.
Compound 11 was added at doses from 0-30 micromolar, and the results monitored at 24, 48, and 72 hours after treatment.

C[C@@H]1CN([C@H](C)CO)C(=O)c2cccc(NC(=O)c3ccc(-c4nccs4)cc3)c2O[C@@H]1CN(C)Cc1ccc(C(=O)Nc2ccccc2N)cc1 [Compound 1, N-(2-aminophenyl)-4-(((((2S,3R)-5-((R)-1-hydroxypropan-2-yl)-3-methyl-6-oxo-10-(4-(thiazol-2-yl)benzamido)-3,4,5,6-tetrahydro-2H-benzo[b][1,5]oxazocin-2-yl)methyl)(methyl)amino)methyl)benzamide]
BAF47 stabilization (anti-Brg IP, anti-BAF47 western blot) [1]: stabilized BAF47

C[C@@H]1CN([C@H](C)CO)C(=O)c2cc(NC(=O)NC3CCCCC3)ccc2O[C@@H]1CN(C)S(=O)(=O)c1cccs1 [Compound 3, N-(((2S,3R)-8-(3-cyclohexylureido)-5-((R)-1-hydroxypropan-2-yl)-3-methyl-6-oxo-3,4,5,6-tetrahydro-2H-benzo[b][1,5]oxazocin-2-yl)methyl)-N-methylthiophene-2-sulfonamide]
BAF47 stabilization (anti-Brg IP, anti-BAF47 western blot) [1]: stabilized BAF47

COc1ccc2c3c([nH]c2c1)[C@@H](CO)N(Cc1ccccc1F)CC31CCN(C(=O)C2CCC2)CC1 [Compound 5, (S)-cyclobutyl(2′-(2-fluorobenzyl)-1′-(hydroxymethyl)-7′-methoxy-1′,2′,3′,9′-tetrahydrospiro[piperidine-4,4′-pyrido[3,4-b]indol]-1-yl)methanone]
BAF47 stabilization (anti-Brg IP, anti-BAF47 western blot) [1]: stabilized BAF47
BAF47 stabilization within the BAF complex (BAF155 immunoprecipitation) [2]: stabilized BAF47 within the BAF complex
BAF47 stabilization (western blot image, FIG. 8 lower panel) ([2]; Aska-SS cells upon treatment with Compound 5): stabilization of BAF47
Cell viability (CellTiter Glo luminescence) [3]: resulted in cell toxicity

C[C@@H]1CCCCO[C@@H](CN(C)Cc2ccc(C(=O)Nc3ccccc3N)cc2)[C@H]2C[C@@H](CO)N(C2)C(=O)c2cc(N(C)C)ccc2O1 [Compound 8, N-(2-aminophenyl)-4-(((((13S,15R,5R,11R)-35-(dimethylamino)-15-(hydroxymethyl)-5-methyl-2-oxo-4,10-dioxa-1(1,3)-pyrrolidina-3(1,2)-benzenacycloundecaphane-11-yl)methyl)(methyl)amino)methyl)benzamide]
BAF47 stabilization (anti-Brg IP, anti-BAF47 western blot) [1]: stabilized BAF47

COc1ccc2c3c([nH]c2c1)CN(Cc1ccccc1F)CC31CCN(C(=O)C2CCC2)CC1 [Compound 11, cyclobutyl(2′-(2-fluorobenzyl)-7′-methoxy-1′,2′,3′,9′-tetrahydrospiro[piperidine-4,4′-pyrido[3,4-b]indol]-1-yl)methanone]
BAF47 stabilization within the BAF complex (BAF155 immunoprecipitation) [2]: stabilized BAF47 within the BAF complex
BAF47 stability as a function of time and dose [4]: increases BAF47 stability in dose-dependent manner
